Here are results for twelve compounds from ChEMBL document CHEMBL1821715, “Synthesis, characterization and pharmacological activity of 4-{[1-substituted aminomethyl-4-arylideneamino-5-sulfanyl-4,5-dihydro-1H-1,2,4-triazol-3-yl]methyl}-2H-1,4-benzothiazin-3(4H)-ones” (2011).

Common to all, as to assay type: functional
The test system of test [1] is Rattus norvegicus. Kind of test: Antiinflammatory activity in Wistar albino rat assessed as reduction of carrageenan-induced paw volume at 20 mg/kg, po administered 30 mins before carrageenan challenge measured after 2 hrs relative to control. Set-up: scale not given: the % may be the effect or the level left.
For test [2], the system named is Rattus norvegicus. In words: Analgesic activity in Wistar albino rat assessed as reaction time required for tail flicking at 20 mg/kg after 60 mins by tail-flick method relative to control. (In general: Thermal pain tests record how soon the animal reacts.)
Test [3] has as its system Rattus norvegicus. In words: Antiinflammatory activity in Wistar albino rat assessed as reduction of carrageenan-induced paw volume at 20 mg/kg, po administered 30 mins before carrageenan challenge measured after 0.5 hr relative to control. Set-up: scale not given: the % may be the effect or the level left. (In general: Carrageenan injected into the paw causes an acute inflammation.)

In test [4] the test system is Rattus norvegicus. In words: Analgesic activity in Wistar albino rat assessed as reaction time required for tail flicking at 20 mg/kg after 30 mins by tail-flick method relative to control.
In test [5] the test system is Rattus norvegicus. Kind of test: Analgesic activity in Wistar albino rat assessed as reaction time required for tail flicking at 20 mg/kg after 90 mins by tail-flick method relative to control.
Test [6] concerns Rattus norvegicus. In words: Antiinflammatory activity in Wistar albino rat assessed as reduction of carrageenan-induced paw volume at 20 mg/kg, po administered 30 mins before carrageenan challenge measured after 1 hr relative to control. Also noted: scale not given: the % may be the effect or the level left.

Take `CN1CCN(Cn2nc(CN3C(=O)CSc4ccccc43)n(/N=C/c3ccccc3)c2=S)CC1`: the Activity worked out at 10.39% in the test on Rattus norvegicus [1], 8.1% in the test on Rattus norvegicus [3] and 9.8% in the test on Rattus norvegicus [6]. Also, the values for the Time in the test on Rattus norvegicus [2], in the test on Rattus norvegicus [4] and in the test on Rattus norvegicus [5] were 4.3 s, 3.5 s and 4.225 s, respectively.
Turning to `O=C1CSc2ccccc2N1Cc1nn(CN2CCOCC2)c(=S)n1/N=C/c1ccc(Cl)cc1`, the Activity is 29.55% in the test on Rattus norvegicus [1], 28.04% in the test with Rattus norvegicus [3] and 32.35% with Rattus norvegicus [6]. Moreover, the Time was determined as 4.875 s with Rattus norvegicus [2], 4.8 s in the test on Rattus norvegicus [4] and 4.075 s in the test with Rattus norvegicus [5].
`O=C1CSc2ccccc2N1Cc1nn(CN2CCOCC2)c(=S)n1/N=C/c1ccc(O)cc1`: the Activity with Rattus norvegicus [1] came to 38.97%; in the test with Rattus norvegicus [3], 53.38%; with Rattus norvegicus [6] it was 45.1%. The figures for the Time with Rattus norvegicus [2], with Rattus norvegicus [4] and with Rattus norvegicus [5] were 5 s, 4.3 s and 6 s, respectively.
`CN1CCN(Cn2nc(CN3C(=O)CSc4ccccc43)n(/N=C/c3ccc(Cl)cc3)c2=S)CC1`: the Activity in the test with Rattus norvegicus [1] was determined as 42.86%; with Rattus norvegicus [3], 38.51%; with Rattus norvegicus [6], 44.12%. The Time in the test on Rattus norvegicus [2] came out at 5.375 s; in the test on Rattus norvegicus [4], 4.575 s; in the test on Rattus norvegicus [5] it was 5 s.
With `O=C1CSc2ccccc2N1Cc1nn(CN2CCCCC2)c(=S)n1/N=C/c1ccc([N+](=O)[O-])cc1`, the Activity with Rattus norvegicus [1] is listed as 58.77%; with Rattus norvegicus [3], 52.71%; in the test on Rattus norvegicus [6] it was 55.56%. Besides, the values for the Time in the test with Rattus norvegicus [2], in the test on Rattus norvegicus [4] and in the test with Rattus norvegicus [5] were 5.3 s, 5.1 s and 4.875 s, respectively.
Take `O=C1CSc2ccccc2N1Cc1nn(CN2CCOCC2)c(=S)n1/N=C/c1ccccc1`: the Activity in the test on Rattus norvegicus [1] worked out at 10.39%; in the test with Rattus norvegicus [3], 5.4%; in the test on Rattus norvegicus [6], 10.13%. The Time with Rattus norvegicus [2] was 3.375 s; in the test on Rattus norvegicus [4], 3.175 s; in the test with Rattus norvegicus [5], 3.4 s.
In the case of `O=C(O)CN1C(=O)CSc2ccccc21`, the results for the Activity in the test on Rattus norvegicus [1], in the test with Rattus norvegicus [3] and with Rattus norvegicus [6] were 27.93%, 38.51% and 30.07%, respectively. Further, the values for the Time with Rattus norvegicus [2], in the test with Rattus norvegicus [4] and with Rattus norvegicus [5] were 6.5 s, 5.775 s and 6.875 s, respectively.
Regarding `CC(C)=CCN1CC[C@]2(C)c3cc(O)ccc3C[C@H]1[C@H]2C` [(+)-PENTAZOCINE], the Time with Rattus norvegicus [2] stood at 7.175 s; in the test with Rattus norvegicus [4], 6.4 s; with Rattus norvegicus [5], 7.45 s.
In the case of `O=C1CSc2ccccc2N1Cc1nn(CN2CCCCC2)c(=S)n1/N=C/c1ccccc1`, the values for the Activity in the test with Rattus norvegicus [1], with Rattus norvegicus [3] and in the test with Rattus norvegicus [6] were 41.23%, 40.21% and 41.18%, respectively. Further, the Time with Rattus norvegicus [2] turned out to be 5.3 s; in the test with Rattus norvegicus [4] it was 3.925 s; in the test on Rattus norvegicus [5] it was 5.5 s.
Turning to `CN1CCN(Cn2nc(CN3C(=O)CSc4ccccc43)n(/N=C/c3ccc([N+](=O)[O-])cc3)c2=S)CC1`, the Activity was determined as 37.34% in the test on Rattus norvegicus [1], 33.11% in the test with Rattus norvegicus [3] and 40.53% with Rattus norvegicus [6]. The Time in the test with Rattus norvegicus [2] is listed as 5.975 s; in the test on Rattus norvegicus [4], 5.475 s; in the test on Rattus norvegicus [5] it was 6.05 s.
Regarding `O=C1CSc2ccccc2N1Cc1nn(CN2CCOCC2)c(=S)n1/N=C/c1ccc([N+](=O)[O-])cc1`, the Activity came out at 31.82% in the test on Rattus norvegicus [1], 37.84% in the test with Rattus norvegicus [3] and 42.16% with Rattus norvegicus [6]. Moreover, the Time with Rattus norvegicus [2] is 6.05 s; with Rattus norvegicus [4], 5.425 s; in the test on Rattus norvegicus [5], 6.025 s.
`COc1ccc2c(c1)c(CC(=O)O)c(C)n2C(=O)c1ccc(Cl)cc1` [INDOMETHACIN]: the Activity with Rattus norvegicus [1] was 69.81%; in the test with Rattus norvegicus [3] it was 66.89%; with Rattus norvegicus [6], 70.26%.
